Among the data in paper PMC8591201, “Anti-Tumor Activity of AZD4547 Against NTRK1 Fusion Positive Cancer Cells Through Inhibition of NTRKs” (Frontiers in Oncology, 2021) are GI50 values, retold here.

What all share (experiment): cells
Common to all, as to design: Anti-proliferation, 10-point dose response, CellTiter-Glo luminescence (MTT stated for KM12(Luc)), GI50 fitted in Prism

The test system of one test is CAPAN-1. Particulars: Homo sapiens, CAPAN-1, 72 h, read-out: GI50 (µM) a.
A further test has as its system NCI-H2087. Particulars: Homo sapiens, NCI-H2087, 72 h, read-out: GI50 (µM) a.
The subject of a further test is OVCAR-8. Particulars: Homo sapiens, OVCAR-8, 72 h, read-out: GI50 (µM) a.
In another test the test system is PC-3. Particulars: Homo sapiens, PC-3, 72 h, read-out: GI50 (µM) a.
A further test concerns NCI-H1666. Particulars: Homo sapiens, NCI-H1666, 72 h, read-out: GI50 (µM) a.
The next test deals with 8505C. Particulars: Homo sapiens, 8505C, 72 h, read-out: GI50 (µM) a.
The test system of another test is Molm-14. Particulars: Homo sapiens, MOLM-14, 72 h, read-out: GI50 (µM) a.
The subject of the next test is DLD-1. Particulars: Homo sapiens, DLD-1, 72 h, read-out: GI50 (µM) a.
The next test deals with AN3-CA. Particulars: Homo sapiens, AN3-CA, 72 h, read-out: GI50 (µM) a.
Another test deals with UMUC3. Particulars: Homo sapiens, UMUC3, 72 h, read-out: GI50 (µM) a.
A further test relates to RT-112. Particulars: Homo sapiens, RT-112, 72 h, read-out: GI50 (µM) a.
The next test deals with A375. Particulars: Homo sapiens, A-375, 72 h, read-out: GI50 (µM) a.

Molecules are shown by their SMILES.

One may read the GI50 as the concentration at which growth is held to half of that of the control. On to `COc1cc(CCc2cc(NC(=O)c3ccc(N4C[C@@H](C)N[C@@H](C)C4)cc3)n[nH]2)cc(OC)c1` [AZD4547], for which the GI50 in the test with CAPAN-1 is 17.5 µM; in the test with NCI-H2087, 27.4 µM; in the test with OVCAR-8 it was 4.97 µM; in the test on PC-3 it was 10.6 µM; in the test on NCI-H1666, 10.8 µM; with 8505C, 14.7 µM. Also, the GI50 in the test with Molm-14 worked out at 1.25 µM; in the test on DLD-1 it was 27.5 µM; in the test with AN3-CA, 0.2 µM; with UMUC3, 46.3 µM; with RT-112, 0.42 µM; in the test on A375, 11.4 µM.
